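Dose response: 5 concentrations. Exposure: 48 h. Format: 96-well plates. Endpoint: linear interpolation; highest concentration if not reached. GI50 = concentration required for 50% inhibition of growth.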 The source made the active and inactive calls. No stated cut-off is given here; in the data, active = GI50 up to about 1.1 µM and inactive = higher.
Experiments:
Assay in all cases: NCI anticancer screen, dose series, 48 h
[1] = test system: A498
[2] = test system: HL-60
[3] = test system: HOP-62
[4] = test system: NCI-H226
[5] = test system: NCI-H23
[6] = test system: OVCAR-3
[7] = test system: OVCAR-4
[8] = test system: OVCAR-8
[9] = test system: SF-539
[10] = test system: SN12C
[11] = test system: SNB-75
[12] = test system: SR
[13] = test system: UACC-62
[14] = test system: HOP-92
[15] = test system: DU-145
[16] = test system: Hs-578T
[17] = test system: MCF7
[18] = test system: MDA-MB-231
[19] = test system: MDA-MB-435

Measured: GI50

CC(=O)Nc1ccc(C2CC(c3ccc([N+](=O)[O-])cc3)=Nc3ccccc3S2)cc1 (stereo unspecified)
inactive: [1] 16.5 µM | [2] 21.3 µM | [3] 17.1 µM | [4] 26.9 µM | [5] > 10 µM | [6] 23.2 µM | [7] 19.7 µM | [8] 16.6 µM | [9] 17.7 µM | [10] 16.6 µM | [11] 12.8 µM | [12] 12.9 µM | [13] 15.2 µM

COC(=O)C1(C(=O)OC)CC2c3c(c4ccccc4n3C)CC(C1=O)N2Cc1ccccc1 (stereo unspecified)
inactive: [1] > 100 µM | [2] 96.8 µM | [3] > 100 µM | [14] > 100 µM | [4] > 100 µM | [5] > 100 µM | [6] > 100 µM | [7] 76.6 µM | [8] > 100 µM | [9] > 100 µM | [10] > 100 µM | [11] 15.4 µM | [13] 89.9 µM

CCCCCCCCC(C)CCCCCCCCC(=O)OCC(COP(=O)([O-])OCC[N+](C)(C)C)OC(=O)CCCCCCCCC(C)CCCCCCCC (stereo unspecified)
inactive: [1] > 100 µM | [2] > 100 µM | [3] > 100 µM | [14] > 100 µM | [4] > 100 µM | [5] > 100 µM | [6] > 100 µM | [7] > 100 µM | [8] > 100 µM | [10] > 100 µM | [11] > 100 µM | [12] > 100 µM | [13] > 100 µM

Cc1ccc(NC(=O)CC(=O)n2nc(C)c(/N=N/c3ccccc3C(=O)O)c2C)cc1
inactive: [1] > 100 µM | [2] > 100 µM | [3] > 100 µM | [5] > 100 µM | [6] > 100 µM | [7] > 100 µM | [8] > 100 µM | [9] > 100 µM | [10] > 100 µM | [11] 89.1 µM | [13] > 100 µM

[N-]=[N+]=C1CNC(=O)NC1=O
inactive: [15] > 100 µM | [2] 34 µM | [3] > 100 µM | [14] > 100 µM | [16] > 100 µM | [17] > 100 µM | [18] > 100 µM | [19] 95.7 µM | [4] > 100 µM | [5] > 100 µM | [6] > 100 µM | [7] > 100 µM | [8] > 100 µM | [9] > 100 µM | [10] > 100 µM | [11] 13.5 µM | [13] > 100 µM

Cn1c2c(cc(-c3ccccc3)c1=O)COc1ccccc1-2
inactive: [1] 40.6 µM | [2] 29.8 µM | [3] 42.3 µM | [14] 28.8 µM | [4] 32.5 µM | [5] 26.9 µM | [6] 26.4 µM | [7] 37.8 µM | [8] 34 µM | [9] 49.1 µM | [10] 35 µM | [11] 23.4 µM | [12] 39.1 µM | [13] 14.7 µM

S=C(Nc1ccccc1)N(/N=C/C=C/c1ccccc1)c1nnc(-c2ccccc2)c(-c2ccccc2)n1
inactive: [1] 67.5 µM | [2] 22.4 µM | [3] 78.2 µM | [14] 18.7 µM | [4] 24.3 µM | [5] 19.6 µM | [6] 38.6 µM | [7] 30.5 µM | [8] > 100 µM | [9] 35.7 µM | [10] > 100 µM | [11] > 100 µM | [13] 52.4 µM

CC(C)(C)C1=C(Br)C(OC(=O)C(F)(F)F)(C(C)(C)C)OP1(=O)c1ccccc1 (stereo unspecified)
inactive: [1] 27.8 µM | [15] 45.2 µM | [2] 24.8 µM | [3] 25.9 µM | [14] 36.5 µM | [16] 23.7 µM | [17] 42.7 µM | [19] 53.3 µM | [4] 40.5 µM | [5] 33.7 µM | [6] 31.9 µM | [7] 49.1 µM | [8] 34.7 µM | [9] 37.9 µM | [10] 39 µM | [11] 33.4 µM | [13] 28.8 µM

Cc1ccccc1N1C(=O)/C(=C/c2ccc(N(CCC#N)CCC#N)cc2)N=C1c1cc([N+](=O)[O-])ccc1Cl
inactive: [1] > 100 µM | [2] 35 µM | [3] 25.6 µM | [4] > 100 µM | [5] > 100 µM | [6] 59.3 µM | [7] > 100 µM | [9] > 100 µM | [10] > 100 µM | [11] > 100 µM | [12] 7.19 µM | [13] 22.5 µM

Cn1nc(-c2ccccc2)c(C(=O)/C=C/c2ccccc2)c(N2CCOCC2)c1=O
inactive: [1] 15.4 µM | [2] 12.8 µM | [3] 37.2 µM | [14] 5.06 µM | [5] 16.4 µM | [8] 28.4 µM | [9] 15.9 µM | [10] 21.4 µM | [13] 19.8 µM

CCOC(=O)NC(=O)c1cn(CCN2CCN(C(=O)NCCCCCCNC(=O)N3CCN(CCn4cc(C(=O)NC(=O)OCC)c(=O)n(CCN(CC)CC)c4=O)CC3)CC2)c(=O)n(CCC(CC)CC)c1=O
inactive: [1] > 100 µM | [2] > 100 µM | [3] > 100 µM | [14] > 100 µM | [5] > 100 µM | [6] > 100 µM | [7] > 100 µM | [8] > 100 µM | [9] > 100 µM | [10] > 100 µM | [11] > 100 µM | [12] > 100 µM | [13] > 100 µM

O=[N+]([O-])c1cc(Cl)ccc1OCc1ccccc1
inactive: [1] > 100 µM | [2] 28.4 µM | [3] 52 µM | [14] 34 µM | [5] 32.1 µM | [6] 33 µM | [7] > 100 µM | [8] > 100 µM | [9] 57.3 µM | [10] > 100 µM | [11] 20.6 µM | [12] 26.4 µM | [13] > 100 µM

CC(=O)c1cccc(NC(=O)C(=O)C(C2OC(=O)c3ccccc32)[N+](=O)[O-])c1 (stereo unspecified)
inactive: [1] > 100 µM | [2] > 100 µM | [3] > 100 µM | [14] > 100 µM | [4] > 100 µM | [5] > 100 µM | [6] > 100 µM | [7] > 100 µM | [9] > 100 µM | [10] > 100 µM | [11] > 100 µM | [12] > 100 µM | [13] > 100 µM

O=C(O)C(=O)/C=C\c1ccc(Cl)cc1
inactive: [1] > 100 µM | [2] > 100 µM | [3] > 100 µM | [14] 80.9 µM | [4] > 100 µM | [5] > 100 µM | [6] > 100 µM | [7] > 100 µM | [8] > 100 µM | [9] > 100 µM | [10] > 100 µM | [11] > 100 µM | [12] 51.6 µM | [13] > 100 µM

COc1cc(/C=N/N=C(\N)NO)c([N+](=O)[O-])cc1OC
inactive: [1] 37.7 µM | [2] 26.8 µM | [3] 52.7 µM | [14] 29.2 µM | [4] 14.7 µM | [5] 32.4 µM | [6] 34 µM | [7] 15.2 µM | [8] 31.7 µM | [9] 41 µM | [10] 27 µM | [11] 27.5 µM | [12] 29.2 µM | [13] 20.6 µM

N#Cc1c(N)oc2cc3c(C#N)c(N)oc3cc12
inactive: [2] > 100 µM | [3] > 100 µM | [14] > 100 µM | [5] > 100 µM | [6] > 100 µM | [7] > 100 µM | [8] > 100 µM | [9] > 100 µM | [10] > 100 µM | [11] 83.6 µM | [13] > 100 µM

O=C1C2C3C=C4c5ccccc5N(c5ccccc5)C4(C2C(=O)N1c1ccc([N+](=O)[O-])cc1)[C@H]1C(=O)N(c2ccc([N+](=O)[O-])cc2)C(=O)[C@@H]31 (stereo partly specified)
inactive: [1] > 100 µM | [2] > 100 µM | [3] > 100 µM | [14] > 100 µM | [4] > 100 µM | [5] > 100 µM | [6] > 100 µM | [7] > 100 µM | [8] > 100 µM | [9] > 100 µM | [10] > 100 µM | [11] 11.1 µM | [13] > 100 µM

COC(=O)C1=C(O)c2cc(OC)c(OC)c(OC)c2C(c2ccc3c(c2)OCO3)[C@@H]1C(=O)OC (stereo partly specified)
inactive: [1] 3.82 µM | [2] 1.74 µM | [3] 5.53 µM | [14] > 100 µM | [4] 8.97 µM | [5] 7.03 µM | [6] 1.99 µM | [7] 6.49 µM | [8] 5.37 µM | [9] 2.18 µM | [10] 3.68 µM | [11] 4.07 µM | [12] 3.66 µM | [13] 1.53 µM

CCN(CC)CCCC(C)NC(=O)c1ccc2c(c1)C(=O)c1ccccc1C2=O (stereo unspecified)
inactive: [1] 20.6 µM | [2] 13.5 µM | [3] 27.2 µM | [14] 24.4 µM | [4] 22.3 µM | [5] 15.4 µM | [6] 7.74 µM | [7] 15.1 µM | [8] 22.3 µM | [9] 19.2 µM | [10] 18.1 µM | [11] 48.2 µM | [12] 20.7 µM | [13] 20.5 µM

O=C(O)CS [THIOGLYCOLIC ACID]
inactive: [2] > 100 µM | [14] > 100 µM | [4] > 100 µM | [5] > 100 µM | [7] > 100 µM | [9] > 100 µM | [10] > 100 µM | [11] > 100 µM | [12] > 100 µM | [13] > 100 µM

— ChEMBL document CHEMBL1201862, “PubChem BioAssay data set” (2004)
